According to patent US10575485B2, “Wheat plants having increased resistance to imidazolinone herbicides” (The Department of Agriculture, Western Australia, priority 2002, dated 2020):

Columns and labels:
[1] = tested on: Triticum aestivum wheat lines K-42 and Br-8; assay: Seed soak and spray selection of mutagenised wheat lines for imazamox tolerance; format: in vivo; conditions: M3 seed soaked in 50 ppm solution for 24 hours, subsequent plants sprayed with 50 ppm
Procedure: 840 grams of seed of the Triticum aestivuni wheat varieties Krichauff and Brookton were soaked in a sodium azide solution (0.065 g/L) to produce M1 seed. M1 plants were allowed to self pollinate to produce M2 seed. M2 seed were soaked in a 50 ppm solution of the imidazolinone herbicide imazamox for 24 hours prior to sowing in the field. Resultant plants that appeared to have normal growth eight to nine weeks after sowing were transplanted from the field to a greenhouse for M3 seed production. To confirm herbicide tolerance, M3 seed were soaked in a 50 ppm solution of imazamox for 24 hours prior to sowing, and subsequent plants were sprayed with a solution of 50 ppm of imazamox.

[2] = tested on: wheat plants (K-42, Br-8, K-42/Br-8, wild type Krichauff and Brookton); assay: Greenhouse herbicide tolerance, injury scored on a 0-9 scale; format: in vivo, Triticum aestivum; conditions: 40 and 120 g/ha
Procedure: Tolerance of K-42 and Br-8 to the imidazolinone herbicide imazamox was evaluated at 40 and 120 g/ha in the greenhouse. Wild type Krichauff and Brookton were used as herbicide susceptible controls. 24 plants were treated at each rate at the 2-3 leaf stage. Injury was scored on a 0-9 scale, 0 representing no injury and 9 representing plant death. FIG. 4 summarizes the data collected 14 and 21 days after treatment. In Example 1, reference was made to crosses between K-42, containing a mutation in Als3 conferring imidazolinone herbicide tolerance, and FS-2 and Br-8, each containing a mutation in Als1 also conferring imidazolinone herbicide tolerance. Krichauff and Brookton are the wheat varieties from which K-42 and Br-8, respectively, were derived. Lines derived from the K-42/FS-2 cross were tolerant to rates of up to six times that required for economic weed control in the field. One line derived from the K-42/Br-8 cross was evaluated in the greenhouse for tolerance to 40 and 120 grams/hectare of irnazamox. Injury was scored on a 0-9 scale, 0 representing no injury and 9 representing plant death.

[3] = tested on: AHAS extracted from wild type and tolerant wheat plants; assay: In vitro AHAS enzyme activity in the presence of imidazolinone herbicide; format: biochemical, Triticum aestivum
Source text: Because the tolerance in K-42 and Br-8 is due to a mutation in the AHAS enzyme rendering it resistant to inhibition by imidazolinone herbicides, the in vitro activity of AHAS extracted from wild type plants (not having the mutation for tolerance) can be compared to the in vitro activity of AHAS extracted from tolerant plants in the presence of varying concentrations of an imidazolinone herbicide. K-42 was compared to the wild type variety Krichauff, and Br-8 was compared to the wild type variety Brookton. […] As explained in Example 2, the in vitro AHAS enzyme activity can be compared among lines with and without a mutation conferring resistance to inhibition by imidazolinone herbicides. […]

Row | Compound | Herbicide tolerance of M2-derived lines K-42 and Br-8 [1] | Resistance and injury of K-42 and BR-8 relative to wild type counterparts (FIG. 4) ([2]; 2-3 leaf stage, 14 and 21 days after treatment) | Tolerance and injury of the line derived from the K-42/Br-8 cross (FIG. 6) ([2]; injury 0-9 scale) | Residual uninhibited AHAS in Br-8 and K-42 ([3]; 100 μM imazamox) | Uninhibited AHAS enzyme activity with increasing herbicide concentration (FIG. 5) ([3]; wild type Krichauff and Brookton versus K-42 and Br-8) | Percent uninhibited AHAS activity in the Br-8/K-42 combination (FIG. 7) ([3]; four highest herbicide concentrations, compared with Br-8, K-42 and wild type)
1 | COCc1cnc(C2=NC(C)(C(C)C)C(=O)N2)c(C(=O)O)c1 (stereo not drawn) [imazamox] | identified as tolerant to imazamox | increased resistance and decreased injury | greatly enhanced tolerance at both 40 and 120 g/ha with very little injury | sufficient to provide a herbicide tolerant response | decreased faster in wild type lines than in either Br-8 or K-42 | –
2 | CCc1cnc(C2=NC(C)(C(C)C)C(=O)N2)c(C(=O)O)c1 (stereo not drawn) [imazethapyr] | – | – | – | – | – | increase in percent uninhibited AHAS activity
